Experimental data published in patent publication US9474780B2, “GIP and GLP-1 co-agonist compounds” (Eli Lilly and Company, priority 2015, dated 2016).
Numbered stars: 1 amine (or outer) side, 2 acyl side, 3 side chain; on linkers, the order of the positions; unused ones are H or OH. Square brackets hold non-standard residues; d marks the D form. Side chains are listed from the residue outwards. Peptide text beside a SMILES is read from it. * marks the point of attachment. C20 diacid = O=C(O)CCCCCCCCCCCCCCCCCCC(=O)*; γGlu = O=C(O)[C@H](CCC(=O)[*:2])N[*:1]; 1Nal = N[C@@H](Cc1cccc2ccccc12)C(=O)O; AEEA = NCCOCCOCC(=O)O; Aib = CC(C)(N)C(=O)O

What was measured:
[1] = target: T1, human GLP-1R (Homo sapiens, UniProt P43220); assay: Functional hGLP-1R cAMP assay in HEK-293 clonal cells; type: cell-based; conditions: HEK293; percent of maximal response of hGLP-1(7-36)NH2
T1 construct: expressed in transfected cells; host or cells: 293HEK, Hygromycin-selected; crude plasma membranes
T1 sequence (P43220 24-463): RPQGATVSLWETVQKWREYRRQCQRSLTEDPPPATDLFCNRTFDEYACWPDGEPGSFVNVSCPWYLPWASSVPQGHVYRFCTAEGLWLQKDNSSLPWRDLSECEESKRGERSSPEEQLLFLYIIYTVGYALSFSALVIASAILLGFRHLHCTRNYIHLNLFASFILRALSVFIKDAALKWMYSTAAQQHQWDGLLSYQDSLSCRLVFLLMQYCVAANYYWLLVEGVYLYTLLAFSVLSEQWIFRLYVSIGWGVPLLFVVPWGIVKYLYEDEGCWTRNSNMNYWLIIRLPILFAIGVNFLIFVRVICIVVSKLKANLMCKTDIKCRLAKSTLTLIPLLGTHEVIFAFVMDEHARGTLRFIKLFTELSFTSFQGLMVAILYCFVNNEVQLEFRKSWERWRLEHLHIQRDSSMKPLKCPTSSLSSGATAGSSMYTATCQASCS

[2] = Pharmacokinetics in cynomolgus monkeys; type: in vivo; conditions: cynomolgus monkey, plasma, single SC 0.2 mg/kg, male monkeys, n = 2; for AUC(0-inf): read-out: Mean AUC0-inf; for half-life: read-out: Mean T1/2 (converted); for Tmax: read-out: Mean Tmax
Procedure: The compounds are administered by a single intravenous or subcutaneous dose (0.2 mg/kg) in 20 mM citrate buffer (pH 7.0) at a volume of 0.21 ml/kg. Blood is collected from each animal at 2, 4, 8, 12, 24, 48, 72, 96, 120, 144, 168, 204, 240, and 312 hours post-dosage. The plasma concentrations of compounds of the present invention are determined by a LC/MS method. Briefly, a compound of the present invention is extracted from 100% Monkey plasma sample (50 μl) diluted with 1×PBS (150 μl) and mixed with N-butanol (400 μl). Three distinct liquid layers are formed with the compound located in the top layer. A volume of 200 μl is transferred to a v-bottom 96-well plate, dried down using heated Nitrogen gas and reconstituted with 100 μl of 30% acetonitrile/0.1% formic acid. 20 μl of the reconstituted sample is injected onto a Supelco Analytical Discovery bio wide C5 3 μm column. The column effluent is directed into a Thermo Q-Exactive mass spectrometer for detection and quantitation.

[3] = target: Human GCGR (Homo sapiens, UniProt P47871); assay: Functional hGCGR cAMP assay in HEK-293 clonal cells
Chain of Human GCGR (P47871 26-477): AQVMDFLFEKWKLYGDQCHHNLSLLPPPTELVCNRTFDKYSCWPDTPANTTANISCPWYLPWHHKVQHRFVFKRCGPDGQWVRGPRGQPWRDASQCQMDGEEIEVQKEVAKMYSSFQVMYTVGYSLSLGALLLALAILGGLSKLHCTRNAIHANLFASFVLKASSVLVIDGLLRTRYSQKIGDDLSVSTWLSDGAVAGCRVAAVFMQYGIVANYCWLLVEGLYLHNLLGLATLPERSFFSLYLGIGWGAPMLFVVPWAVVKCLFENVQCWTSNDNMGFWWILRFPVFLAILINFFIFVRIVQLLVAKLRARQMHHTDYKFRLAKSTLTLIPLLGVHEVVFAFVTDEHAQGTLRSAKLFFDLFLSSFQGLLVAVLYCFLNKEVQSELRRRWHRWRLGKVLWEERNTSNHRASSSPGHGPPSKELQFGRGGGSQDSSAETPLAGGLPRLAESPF

[4] = target: T2, human GIP-R (Homo sapiens, UniProt P48546); assay: Functional hGIP-R cAMP assay in HEK-293 clonal cells; conditions: HEK293, read-out: Human GIP-R Emax
T2 sequence (P48546 22-466): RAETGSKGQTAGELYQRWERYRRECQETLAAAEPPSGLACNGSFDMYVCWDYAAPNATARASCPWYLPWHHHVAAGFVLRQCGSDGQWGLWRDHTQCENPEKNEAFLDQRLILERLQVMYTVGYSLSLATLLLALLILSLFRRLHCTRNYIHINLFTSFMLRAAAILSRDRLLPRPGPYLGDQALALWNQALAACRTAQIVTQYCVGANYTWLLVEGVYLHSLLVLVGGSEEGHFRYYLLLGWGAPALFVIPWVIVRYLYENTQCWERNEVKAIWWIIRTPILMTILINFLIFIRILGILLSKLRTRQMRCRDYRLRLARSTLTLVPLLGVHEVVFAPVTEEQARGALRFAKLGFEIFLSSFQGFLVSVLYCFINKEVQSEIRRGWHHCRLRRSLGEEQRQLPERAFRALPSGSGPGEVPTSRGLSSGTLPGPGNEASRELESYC
Procedure: After an incubation of 60 minutes at room temperature, the resulting increase in intracellular cAMP is quantitatively determined using the CisBio cAMP Dynamic 2 HTRF Assay Kit (Bedford, Mass.). Briefly, cAMP levels within the cell are detected by adding the cAMP-d2 conjugate in cell lysis buffer (20 μl) followed by the antibody anti-cAMP-Eu^3+-Cryptate, also in cell lysis buffer (20 μl). The resulting competitive assay is incubated for at least 60 minutes at room temperature, then detected using a PerkinElmer Envision® instrument with excitation at 320 nm and emission at 665 nm and 620 nm Envision units (emission at 665 nm/620 nm*10,000) are inversely proportional to the amount of cAMP present and are converted to nM cAMP per well using a cAMP standard curve. […] A relative EC50 value and percent top (Emax) is derived by non-linear regression analysis using the percent maximal response versus the concentration of the compound of the present invention, fitted to a four-parameter logistic equation.

[5] = Rat in vivo insulin secretion following intravenous glucose (IVGTT); conditions: s.c. 16 hour prior to glucose
Procedure: Male Wistar rats (Harlan Labs, Indianapolis, Ind.) are randomized by body weight and dosed 1.5 ml/kg s.c. 16 hour prior to glucose administration and then fasted. Doses are vehicle, 0.1, 0.3, 1, 3 and 10 nmol/kg. Animals are weighed, and then anesthetized with sodium pentobarbital (Nembutal Sodium solution; Ovation Pharmaceuticals) dosed i.p. (65 mg/kg, 30 mg/ml). A time zero blood sample is collected into EDTA tubes after which glucose is administered ([…], 5 ml/kg). Blood samples are collected at 2, 4, 6, 10, 20, and 30 minutes post glucose. Plasma glucose levels are determined using a Hitachi analyzer (Roche) and plasma insulin is measured by the MSD insulin assay (Meso Scale, Gaithersburg, Md.).

[6] = Weight loss, body composition and hepatic steatosis in DIO mice; type: in vivo, mouse; conditions: for Blood Glucose: Day 15
Procedure: The effects on weight loss, body composition and hepatic steatosis in DIO mice for compounds of the present invention are evaluated in C57/BL6 DIO mice. […] Animals are individually housed in a temperature-controlled (24° C.) facility with a 12 hour light/dark cycle (lights on 22:00), and free access to food and water. […] Daily body weight and food intake are measured throughout the study. Absolute changes in body weight are calculated by subtracting the body weight of the same animal prior to the first injection of compound. […] On Day 15, blood glucose is measured with Accu-Chek glucometer (Roche) from tail vein blood and then animals may be sacrificed and livers removed and frozen. Liver triglycerides, determined from homogenates of livers collected at sacrifice, and plasma cholesterol are measured on a Hitachi Modular P clinical analyzer. Statistical comparisons between groups are done using one-way ANOVA followed by Dunnett's multiple comparison test. The ED50 for weight loss lowering is determined in GraphPad Prism using the non-linear fit tool.

[7] = target: T1, human GLP-1R; type: binding

CC[C@H](C)[C@H](NC(=O)[C@H](CC(C)C)NC(=O)[C@H](Cc1c[nH]c2ccccc12)NC(=O)[C@H](CCC(N)=O)NC(=O)[C@@H](NC(=O)[C@H](Cc1cccc2ccccc12)NC(=O)[C@H](C)NC(=O)[C@H](CCCCNC(=O)COCCOCCNC(=O)COCCOCCNC(=O)CC[C@H](NC(=O)CC[C@H](NC(=O)CCCCCCCCCCCCCCCCCCC(=O)O)C(=O)O)C(=O)O)NC(=O)[C@H](CCC(N)=O)NC(=O)[C@H](C)NC(=O)[C@@H](NC(=O)[C@H](CCCCN)NC(=O)[C@H](CC(=O)O)NC(=O)[C@H](CC(C)C)NC(=O)C(C)(C)NC(=O)[C@@H](NC(=O)[C@H](CO)NC(=O)[C@H](Cc1ccc(O)cc1)NC(=O)[C@H](CC(=O)O)NC(=O)[C@H](CO)NC(=O)[C@@H](NC(=O)[C@H](Cc1ccccc1)NC(=O)[C@@H](NC(=O)CNC(=O)[C@H](CCC(=O)O)NC(=O)C(C)(C)NC(=O)[C@@H](N)Cc1ccc(O)cc1)[C@@H](C)O)[C@@H](C)O)[C@@H](C)CC)[C@@H](C)CC)C(C)C)C(=O)N[C@@H](C)C(=O)NCC(=O)NCC(=O)N1CCC[C@H]1C(=O)N[C@@H](CO)C(=O)N[C@@H](CO)C(=O)NCC(=O)N[C@@H](C)C(=O)N1CCC[C@H]1C(=O)N1CCC[C@H]1C(=O)N1CCC[C@H]1C(=O)N[C@@H](CO)C(N)=O [Example 2] (H-Y[Aib]EGTFTSDYSI[Aib]LDKIAQK([AEEA-AEEA-γGlu-γGlu-C20 diacid])A[1Nal]VQWLIAGGPSSGAPPPS-NH2)
Emax [1]: 98.2 ± 5.5% | CL/F [2]: 1.2 mL/h/kg | Cmax [2]: 2100 ng/mL | AUC(0-inf) [2]: 173 µg·h/mL | half-life [2]: 43 h | Tmax [2]: 24 h | EC50 [3]: > 1000 nM | Emax [4]: 94.7 ± 2%

CC[C@H](C)[C@H](NC(=O)[C@H](CC(C)C)NC(=O)[C@H](Cc1c[nH]c2ccccc12)NC(=O)[C@H](CCC(N)=O)NC(=O)[C@@H](NC(=O)[C@H](Cc1ccccc1)NC(=O)[C@H](C)NC(=O)[C@H](CCCCNC(=O)COCCOCCNC(=O)COCCOCCNC(=O)CC[C@H](NC(=O)CC[C@H](NC(=O)CCCCCCCCCCCCCCCCCCC(=O)O)C(=O)O)C(=O)O)NC(=O)[C@H](CCC(N)=O)NC(=O)[C@H](C)NC(=O)[C@@H](NC(=O)[C@H](CCCCN)NC(=O)[C@H](CC(=O)O)NC(=O)[C@H](CC(C)C)NC(=O)C(C)(C)NC(=O)[C@@H](NC(=O)[C@H](CO)NC(=O)[C@H](Cc1ccc(O)cc1)NC(=O)[C@H](CC(=O)O)NC(=O)[C@H](CO)NC(=O)[C@@H](NC(=O)[C@H](Cc1ccccc1)NC(=O)[C@@H](NC(=O)CNC(=O)[C@H](CCC(=O)O)NC(=O)C(C)(C)NC(=O)[C@@H](N)Cc1ccc(O)cc1)[C@@H](C)O)[C@@H](C)O)[C@@H](C)CC)[C@@H](C)CC)C(C)C)C(=O)N[C@@H](C)C(=O)NCC(=O)NCC(=O)N1CCC[C@H]1C(=O)N[C@@H](CO)C(=O)N[C@@H](CO)C(=O)NCC(=O)N[C@@H](C)C(=O)N1CCC[C@H]1C(=O)N1CCC[C@H]1C(=O)N1CCC[C@H]1C(=O)N[C@@H](CO)C(N)=O [Example 5]
Emax [1]: 105 ± 4% | % max increase of insulin AUC [5]: 349 +/− 39% | ED50 for insulin, rat IVGTT [5]: 1.02 nmol/kg | % Change from starting body weight ([6]; Table 9, 10 nmol/kg): −23.42 ± 1.43 % | % Change from starting fat mass ([6]; Table 9, 10 nmol/kg): −51.28 ± 1.89 % | % Change from starting body weight ([6]; Table 9, 30 nmol/kg): −26.84 ± 3.14 % | % Change from starting fat mass ([6]; Table 9, 30 nmol/kg): −62.77 ± 5.49 % | % Change from starting body weight ([6]; Table 9, 100 nmol/kg): −37.86 ± 2.25 % | % Change from starting fat mass ([6]; Table 9, 100 nmol/kg): −81.08 ± 1.68 % | Liver Triglycerides ([6]; Table 12, 10 nmol/kg): 48.30 ± 8.14 mg/g tissue | Plasma Cholesterol ([6]; Table 12, 10 nmol/kg): 126.6 ± 9.67 mg/dL | Blood Glucose ([6]; Table 12, 10 nmol/kg): 111.00 ± 6.56 mg/dL | Liver Triglycerides ([6]; Table 12, 30 nmol/kg): 39.60 ± 4.71 mg/g tissue | Plasma Cholesterol ([6]; Table 12, 30 nmol/kg): 108.2 ± 13.84 mg/dL | Blood Glucose ([6]; Table 12, 30 nmol/kg): 104.5 ± 5.30 mg/dL | Liver Triglycerides ([6]; Table 12, 100 nmol/kg): 67.96 ± 13.53 mg/g tissue | Plasma Cholesterol ([6]; Table 12, 100 nmol/kg): 108.6 ± 4.83 mg/dL | Blood Glucose ([6]; Table 12, 100 nmol/kg): 105.3 ± 6.16 mg/dL | EC50 [3]: > 1000 nM | Emax [4]: 105 ± 2%

CC[C@H](C)[C@H](NC(=O)[C@H](CC(C)C)NC(=O)[C@H](Cc1c[nH]c2ccccc12)NC(=O)[C@H](CCC(N)=O)NC(=O)[C@@H](NC(=O)[C@H](Cc1cccc2ccccc12)NC(=O)[C@H](C)NC(=O)[C@H](CCCCNC(=O)COCCOCCNC(=O)COCCOCCNC(=O)CC[C@H](NC(=O)CCCCCCCCCCCCCCCCCCC(=O)O)C(=O)O)NC(=O)[C@H](CCC(N)=O)NC(=O)[C@H](C)NC(=O)[C@@H](NC(=O)[C@H](CCCCN)NC(=O)[C@H](CC(=O)O)NC(=O)[C@H](CC(C)C)NC(=O)C(C)(C)NC(=O)[C@@H](NC(=O)[C@H](CO)NC(=O)[C@H](Cc1ccc(O)cc1)NC(=O)[C@H](CC(=O)O)NC(=O)[C@H](CO)NC(=O)[C@@H](NC(=O)[C@H](Cc1ccccc1)NC(=O)[C@@H](NC(=O)CNC(=O)[C@H](CCC(=O)O)NC(=O)C(C)(C)NC(=O)[C@@H](N)Cc1ccc(O)cc1)[C@@H](C)O)[C@@H](C)O)[C@@H](C)CC)[C@@H](C)CC)C(C)C)C(=O)N[C@@H](C)C(=O)NCC(=O)NCC(=O)N1CCC[C@H]1C(=O)N[C@@H](CO)C(=O)N[C@@H](CO)C(=O)NCC(=O)N[C@@H](C)C(=O)N1CCC[C@H]1C(=O)N1CCC[C@H]1C(=O)N1CCC[C@H]1C(=O)N[C@@H](CO)C(N)=O [Example 8] (H-Y[Aib]EGTFTSDYSI[Aib]LDKIAQK([AEEA-AEEA-γGlu-C20 diacid])A[1Nal]VQWLIAGGPSSGAPPPS-NH2)
Molar ratio of hGLP-1R/hGIP-R ([7]; normalized by factor 4.53 from native GIP and GLP-1 binding): 0.99 | Absolute ratio of hGLP-1R/hGIP-R ([7]; ratio of Ki values): 4.5 | Emax [1]: 88.4 ± 2.3% | CL/F [2]: 4.7 mL/h/kg | Cmax [2]: 1000 ng/mL | AUC(0-inf) [2]: 42.8 µg·h/mL | half-life [2]: 23 h | Tmax [2]: 10 h | % max increase of insulin AUC [5]: 324 +/− 30% | ED50 for insulin, rat IVGTT [5]: 6.13 nmol/kg | % Change from starting body weight ([6]; Table 10, 10 nmol/kg): −17.13 ± 0.81 % | % Change from starting fat mass ([6]; Table 10, 10 nmol/kg): −34.20 ± 1.62 % | % Change from starting body weight ([6]; Table 10, 30 nmol/kg): −25.27 ± 0.70 % | % Change from starting fat mass ([6]; Table 10, 30 nmol/kg): −54.24 ± 2.35 % | % Change from starting body weight ([6]; Table 10, 100 nmol/kg): −29.91 ± 2.03 % | % Change from starting fat mass ([6]; Table 10, 100 nmol/kg): −65.23 ± 6.69 % | Plasma Cholesterol ([6]; Table 13, 10 nmol/kg): 158.8 ± 7.57 mg/dL | Blood Glucose ([6]; Table 13, 10 nmol/kg): 114.7 ± 4.61 mg/dL | Plasma Cholesterol ([6]; Table 13, 30 nmol/kg): 139.4 ± 6.83 mg/dL | Blood Glucose ([6]; Table 13, 30 nmol/kg): 117.1 ± 8.26 mg/dL | Plasma Cholesterol ([6]; Table 13, 100 nmol/kg): 127.8 ± 6.34 mg/dL | Blood Glucose ([6]; Table 13, 100 nmol/kg): 125.4 ± 6.30 mg/dL | EC50 [3]: > 1000 nM | Emax [4]: 108 ± 4%
